# Test results published in patent US6573218B1, “Fused-benzene derivatives useful as herbicides” (Ishihara Sangyo Kaisha, Ltd., priority 1998, dated 2003).
# How the values were obtained:
# Assay type in all cases: in vivo
# [1] = tested on: johnsongrass (Sorghum halepense, SORHA); test: Pre-emerge greenhouse herbicide test; settings: 250 g ai/ha, 14 days after application, scale 0-100 (0 no damage, 100 complete death)
# Description: (§1) A standard greenhouse herbicide activity screening system was used to evaluate the herbicidal efficacy and crop safety of these test compounds. Seven broadleaf weed species including redroot pigweed (Amaranthus retroflexus, AMARE), velvetleaf (Abutilon theophrasti, ABUTH), sicklepod (Cassia obtusifolia, CASOB), ivyleaf morningglory (Ipomoea hederacea, IPOHE), lambsquarters (Chenopodium album, CHEAL), common ragweed (Ambrosia artemisiifolia L., AMBEL), and cocklebur (Xanthium strumarium, XANST) were used as test species. Four grass weed species including green foxtail (Setaria viridis, SETVI), barnyardgrass (Echinochloa crus-galli, ECHCG), johnsongrass (Sorghum halepense, SORHA), and large crabgrass (Digitaria sanguinalis, DIGSA) were also used. In addition, three crop species, field corn (Zea mays L., var. Dekalb 527, CORN), soybean (Glycine max L., var. Pella 86, SOY), and upland rice (Ory0a sp., var.Tebonnet, RICE) were included.
# (§2) All plants were grown in 10 cm square plastic pots which were filled with a sandy loam soil mix. For pre-emerge tests, seeds were planted one day prior to application of the test compounds. For post-emerge tests, seeds were planted 8-21 days prior to the test to allow emergence and good foliage development prior to application of the test substances. At the time of the post-emerge application, plants of all species were usually at the 2-3 leaf stage of development.
# (§3) All test compounds were dissolved in acetone and applied to the test units in a volume of 187 l/ha. Test materials were applied at rates ranging from 15 g ai/ha to 1000 g ai/ha using a track sprayer equipped with a TJ8001E even flow flat fan spray nozzle. Plants were arranged on a shelf so that the top of the canopy (post-emerge) or top of the soil surface (pre-emerge) was 40-45 cm below the nozzle. Pressurized air was used to force the test solution through the nozzle as it was mechanically advanced over the top of all test plants/pots. This application simulates a typical commercial field herbicide application.
# (§4) In the post-emerge test, a commercial non-ionic surfactant was also included (0.25% v/v) to enhance wetting of the leaf surfaces of target plants. Immediately after application, test units of the pre-emerge applications were watered at the soil surface to incorporate the test materials.
# (§5) At 14 days after application of the test materials, phytotoxicity ratings were recorded. A rating scale of 0-100 was used as previously described in Research Methods in Weed Science, 2nd edition, B. Truelove, Ed., Southern Weed Science Society, Auburn University, Auburn, Ala., 1977. Briefly, “0” corresponds to no damage and “100” corresponds to complete death of all plants in the test unit. This scale was used both to determine efficacy against weed species and damage to crop species. Herbicide activity data for various compounds of this invention, which are shown by compound No. in Tables 1-14, are shown in Tables 16 and 17.
# [2] = tested on: redroot pigweed (Amaranthus retroflexus, AMARE); test: Pre-emerge greenhouse herbicide test; settings: 14 days after application, scale 0-100 (0 no damage, 100 complete death)
# Description: as §1, §2, §3, §4, §5
# [3] = tested on: lambsquarters (Chenopodium album, CHEAL); test: Pre-emerge greenhouse herbicide test; settings: 14 days after application, scale 0-100 (0 no damage, 100 complete death)
# Description: as §1, §2, §3, §4, §5
# [4] = tested on: barnyardgrass (Echinochloa crus-galli, ECHCG); test: Pre-emerge greenhouse herbicide test; settings: 14 days after application, scale 0-100 (0 no damage, 100 complete death)
# Description: as §1, §2, §3, §4, §5
# [5] = tested on: large crabgrass (Digitaria sanguinalis, DIGSA); test: Pre-emerge greenhouse herbicide test; settings: 14 days after application, scale 0-100 (0 no damage, 100 complete death)
# Description: as §1, §2, §3, §4, §5
# [6] = tested on: ivyleaf morningglory (Ipomoea hederacea, IPOHE); test: Pre-emerge greenhouse herbicide test; settings: 14 days after application, scale 0-100 (0 no damage, 100 complete death)
# Description: as §1, §2, §3, §4, §5
# [7] = tested on: green foxtail (Setaria viridis, SETVI); test: Pre-emerge greenhouse herbicide test; settings: 14 days after application, scale 0-100 (0 no damage, 100 complete death)
# Description: as §1, §2, §3, §4, §5
# [8] = tested on: velvetleaf (Abutilon theophrasti, ABUTH); test: Pre-emerge greenhouse herbicide test; settings: 14 days after application, scale 0-100 (0 no damage, 100 complete death)
# Description: as §1, §2, §3, §4, §5
# [9] = tested on: sicklepod (Cassia obtusifolia, CASOB); test: Pre-emerge greenhouse herbicide test; settings: 14 days after application, scale 0-100 (0 no damage, 100 complete death)
# Description: as §1, §2, §3, §4, §5
# [10] = tested on: field corn (Zea mays L., var. Dekalb 527, CORN); test: Post-emerge greenhouse crop damage test
# Description: as §1, §2, §3, §4, §5
# [11] = tested on: soybean (Glycine max L., var. Pella 86, SOY); test: Post-emerge greenhouse crop damage test
# Description: as §1, §2, §3, §4, §5
# [12] = tested on: upland rice (Ory0a sp., var.Tebonnet, RICE); test: Post-emerge greenhouse crop damage test
# Description: as §1, §2, §3, §4, §5
# [13] = tested on: redroot pigweed (Amaranthus retroflexus, AMARE); test: Post-emerge greenhouse herbicide test; settings: 14 days after application
# Description: as §1, §2, §3, §4, §5
# [14] = tested on: lambsquarters (Chenopodium album, CHEAL); test: Post-emerge greenhouse herbicide test; settings: 14 days after application
# Description: as §1, §2, §3, §4, §5
# [15] = tested on: barnyardgrass (Echinochloa crus-galli, ECHCG); test: Post-emerge greenhouse herbicide test; settings: 14 days after application
# Description: as §1, §2, §3, §4, §5
# [16] = tested on: large crabgrass (Digitaria sanguinalis, DIGSA); test: Post-emerge greenhouse herbicide test; settings: 14 days after application
# Description: as §1, §2, §3, §4, §5
# [17] = tested on: ivyleaf morningglory (Ipomoea hederacea, IPOHE); test: Post-emerge greenhouse herbicide test; settings: 14 days after application
# Description: as §1, §2, §3, §4, §5
# [18] = tested on: green foxtail (Setaria viridis, SETVI); test: Post-emerge greenhouse herbicide test; settings: 14 days after application
# Description: as §1, §2, §3, §4, §5
# [19] = tested on: velvetleaf (Abutilon theophrasti, ABUTH); test: Post-emerge greenhouse herbicide test; settings: 14 days after application
# Description: as §1, §2, §3, §4, §5
# [20] = tested on: sicklepod (Cassia obtusifolia, CASOB); test: Post-emerge greenhouse herbicide test; settings: 14 days after application
# Description: as §1, §2, §3, §4, §5
# [21] = tested on: field corn (Zea mays L., var. Dekalb 527, CORN); test: Pre-emerge greenhouse crop damage test
# Description: as §1, §2, §3, §4, §5
# [22] = tested on: soybean (Glycine max L., var. Pella 86, SOY); test: Pre-emerge greenhouse crop damage test
# Description: as §1, §2, §3, §4, §5
# [23] = tested on: upland rice (Ory0a sp., var.Tebonnet, RICE); test: Pre-emerge greenhouse crop damage test; settings: in vivo
# Description: as §1, §2, §3, §4, §5
# [24] = 250 g ai/ha, post-emerge, 14 days after application
# [25] = pre-emerge, 250 g ai/ha, 14 days after application, scale 0-100 (0 no damage, 100 complete death)
# [26] = var. Dekalb 527, field corn (Zea mays L.), in vivo, 14 days
# [27] = var. Pella 86, soybean (Glycine max L.), in vivo, 14 days
structure (smiles),measurement,setting,value
Nn1c(C(F)(F)F)cc(=O)n(-c2c(F)cc(Cl)c3c2NC(=O)CO3)c1=O [Compound 4-2],Pre-emerge Herbicidal Activity SORHA (phytotoxicity rating),[1],65
same,Pre-emerge Herbicidal Activity AMARE (phytotoxicity rating),[2]; 250 g ai/ha,100
same,Pre-emerge Herbicidal Activity CHEAL (phytotoxicity rating),[3]; 250 g ai/ha,100
same,Pre-emerge Herbicidal Activity ECHCG (phytotoxicity rating),[4]; 250 g ai/ha,80
same,Pre-emerge Herbicidal Activity DIGSA (phytotoxicity rating),[5]; 250 g ai/ha,70
same,Pre-emerge Herbicidal Activity IPOHE (phytotoxicity rating),[6]; 250 g ai/ha,100
same,Pre-emerge Herbicidal Activity SETVI (phytotoxicity rating),[7]; 250 g ai/ha,80
same,Pre-emerge Herbicidal Activity ABUTH (phytotoxicity rating),[8]; 250 g ai/ha,100
same,Pre-emerge Herbicidal Activity CASOB (phytotoxicity rating),[9]; 250 g ai/ha,100
same,Post-emerge crop damage CORN (phytotoxicity rating 0-100),[10]; [24],90
same,Post-emerge crop damage SOY (phytotoxicity rating 0-100),[11]; [24],100
same,Post-emerge crop damage RICE (phytotoxicity rating 0-100),[12]; [24],90
same,Post-emerge Herbicidal Activity AMARE (phytotoxicity rating 0-100),[13]; 250 g ai/ha,100
same,Post-emerge Herbicidal Activity CHEAL (phytotoxicity rating 0-100),[14]; 250 g ai/ha,100
same,Post-emerge Herbicidal Activity ECHCG (phytotoxicity rating 0-100),[15]; 250 g ai/ha,60
same,Post-emerge Herbicidal Activity DIGSA (phytotoxicity rating 0-100),[16]; 250 g ai/ha,20
same,Post-emerge Herbicidal Activity IPOHE (phytotoxicity rating 0-100),[17]; 250 g ai/ha,100
same,Post-emerge Herbicidal Activity SETVI (phytotoxicity rating 0-100),[18]; 250 g ai/ha,40
same,Post-emerge Herbicidal Activity ABUTH (phytotoxicity rating 0-100),[19]; 250 g ai/ha,100
same,Post-emerge Herbicidal Activity CASOB (phytotoxicity rating 0-100),[20]; 250 g ai/ha,90
same,Pre-emerge Herbicidal Activity CORN (crop damage rating),[21]; [25],100
same,Pre-emerge Herbicidal Activity SOY (crop damage rating),[22]; [25],95
same,Pre-emerge Herbicidal Activity RICE (crop damage rating),[23],90
"Cn1c(C(F)(F)F)cc(=O)n(-c2ccc(Cl)c3ccccc23)c1=O [Compound 5-1, 3-(4-Chloronaphthalen-1-yl)-1-methyl-6-trifluoromethyl-2,4(1H,3H)-pyrimidindione]",Pre-emerge Herbicidal Activity AMARE (phytotoxicity rating),[2]; 500 g ai/ha,100
same,Pre-emerge Herbicidal Activity CHEAL (phytotoxicity rating),[3]; 500 g ai/ha,100
same,Pre-emerge Herbicidal Activity ECHCG (phytotoxicity rating),[4]; 500 g ai/ha,60
same,Pre-emerge Herbicidal Activity DIGSA (phytotoxicity rating),[5]; 500 g ai/ha,98
same,Pre-emerge Herbicidal Activity IPOHE (phytotoxicity rating),[6]; 500 g ai/ha,60
same,Pre-emerge Herbicidal Activity SETVI (phytotoxicity rating),[7]; 500 g ai/ha,100
same,Pre-emerge Herbicidal Activity ABUTH (phytotoxicity rating),[8]; 500 g ai/ha,100
same,Pre-emerge Herbicidal Activity CASOB (phytotoxicity rating),[9]; 500 g ai/ha,60
same,Post-emerge crop damage CORN (phytotoxicity rating 0-100),[10]; [26],0
same,Post-emerge crop damage SOY (phytotoxicity rating 0-100),[11]; [27],0
same,Post-emerge crop damage RICE (phytotoxicity rating 0-100),"[12]; var. Tebonnet, upland rice (Ory0a sp.), in vivo, 14 days",0
same,Post-emerge Herbicidal Activity AMARE (phytotoxicity rating 0-100),[13]; 500 g ai/ha,100
same,Post-emerge Herbicidal Activity CHEAL (phytotoxicity rating 0-100),[14]; 500 g ai/ha,100
same,Post-emerge Herbicidal Activity ECHCG (phytotoxicity rating 0-100),[15]; 500 g ai/ha,70
same,Post-emerge Herbicidal Activity DIGSA (phytotoxicity rating 0-100),[16]; 500 g ai/ha,60
same,Post-emerge Herbicidal Activity IPOHE (phytotoxicity rating 0-100),[17]; 500 g ai/ha,60
same,Post-emerge Herbicidal Activity SETVI (phytotoxicity rating 0-100),[18]; 500 g ai/ha,100
same,Post-emerge Herbicidal Activity ABUTH (phytotoxicity rating 0-100),[19]; 500 g ai/ha,100
same,Post-emerge Herbicidal Activity CASOB (phytotoxicity rating 0-100),[20]; 500 g ai/ha,60
same,Pre-emerge Herbicidal Activity CORN (crop damage rating),[21]; [26],70
same,Pre-emerge Herbicidal Activity SOY (crop damage rating),[22]; [27],70
same,Pre-emerge Herbicidal Activity RICE (crop damage rating),"[23]; var. Tebonnet, upland rice (Ory0a sp.), 14 days",70
